This note sets out measurements from patent US20130281467A1, “NOVEL MICROBICIDES” (SYNGENTA PARTICIPATIONS AG, priority 2010, published 2013).

The structures appear in SMILES notation. Where only a bound is given, the exact number is not on record here.

For data set [1], the system named is Puccinia recondita f. sp. tritici. Kind of data set: Fungicidal activity against Puccinia recondita f. sp. tritici / wheat / leaf disc preventative (brown rust). The class given is in vivo. As to conditions: foliar, wheat leaf segments, inoculated 1 day after application, compared to untreated, read-out: disease control. The method, boiled down: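 Wheat leaf segments (cv. Kanzler) on agar sprayed with formulated compound in water, inoculated with spore suspension 1 day later. Incubated at 19° C, 75% rh, 12 h light/12 h dark; percent disease control versus untreated scored 7-9 days after application.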

A further data set relates to Alternaria solani. Kind of data set: Fungicidal activity against Alternaria solani / tomato / leaf disc (early blight). The class given is in vivo. As to conditions: foliar, tomato leaf disks, inoculated 2 days after application, compared to untreated, read-out: disease control. The method, then: Fungicidal Activity Against Alternaria solani/Tomato/Leaf Disc (Early Blight) Tomato leaf disks cv. Baby were placed on agar in multiwell plates (24-well format) and sprayed with the formulated test compound diluted in water. The leaf disks were inoculated with a spore suspension of the fungus 2 days after application. The inoculated leaf disks were incubated at 23° C./21° C.

Data set [2] concerns Blumeria graminis f. Sp. tritici (Erysiphe graminis f. sp. tritici). As to the kind of experiment: Fungicidal activity against Blumeria graminis f. sp. tritici / wheat / leaf disc preventative (powdery mildew on wheat). The class given is in vivo. As to conditions: foliar, wheat leaf segments, inoculated 1 day after application, compared to untreated, read-out: disease control. The method, boiled down:
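Wheat cv. Kanzler leaf segments on agar were sprayed with the formulated compound diluted in water and inoculated with powdery mildew 1 day later. Incubation was at 20 °C and 60% rh: 24 h dark, then 12 h light/12 h dark. Percent disease control versus untreated was scored 6–8 days after application.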

In a further data set the test system is Gaeumannomyces graminis. As to the kind of experiment: Fungicidal activity against Gaeumannomyces graminis / liquid culture (take-all of cereals). In kind it is cell-based. As to conditions: 4-5 days after application, read-out: disease control (inhibition of growth, photometrically). The method in brief:
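Cryostored mycelial fragments in potato dextrose broth added to 96-well plates with test compound in DMSO. Plates kept at 24° C; growth inhibition measured photometrically 4-5 days after application.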

Data set [3] deals with Glomerella lagenarium (Colletotrichum lagenarium). Kind of data set: Fungicidal activity against Glomerella lagenarium (Colletotrichum lagenarium) / liquid culture (anthracnose). In kind it is cell-based. As to conditions: Colletotrichum orbiculare, 3-4 days after application, read-out: disease control (inhibition of growth, photometrically). The method, boiled down:
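Cryostored conidia mixed into potato dextrose broth were added to test compound in DMSO. Plates were incubated at 24° C. Growth inhibition was measured photometrically 3-4 days after application.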

A further data set relates to Pyrenophora teres. Kind of data set: Fungicidal activity against Pyrenophora teres / barley / leaf disc preventative (net blotch). The class given is in vivo. As to conditions: foliar, barley leaf segments, inoculated 2 days after application, compared to untreated, read-out: disease control. The method in brief:
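Barley leaf segments (cv. Hasso) on agar sprayed with formulated compound in water, then spore-inoculated 2 days later. Kept at 20 °C, 65% rh, 12 h light/dark; disease control versus untreated scored 5-7 days after application.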

Data set [4] relates to Botryotinia fuckeliana (Botrytis cinerea). As to the kind of experiment: Fungicidal activity against Botryotinia fuckeliana (Botrytis cinerea) / liquid culture (gray mould). In kind it is cell-based. As to conditions: 3-4 days after application, read-out: disease control (inhibition of growth, photometrically). The method, boiled down:
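Conidia from cryogenic storage were mixed into Vogels broth and added to wells containing compound in DMSO. Plates incubated at 24 °C; growth inhibition read photometrically 3–4 days after application.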

Data set [5] deals with Phaeosphaeria nodorum (Septoria nodorum). As to the kind of experiment: Fungicidal activity against Phaeosphaeria nodorum (Septoria nodorum) / wheat / leaf disc preventative (glume blotch). In kind it is in vivo. As to conditions: Parastagonospora nodorum, foliar, wheat leaf segments, inoculated 2 days after application, compared to untreated, read-out: disease control. The method, boiled down: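 Wheat cv. Kanzler leaf segments on agar, sprayed with diluted formulated compound, then spore-inoculated 2 days later. Kept at 20 °C, 75% rh, 12 h light/12 h dark; percent disease control versus untreated scored once untreated discs show disease, 5–7 days after application.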

For data set [6], the system named is Mycosphaerella arachidis (Cercospora arachidicola). As to the kind of experiment: Fungicidal activity against Mycosphaerella arachidis (Cercospora arachidicola) / liquid culture (early leaf spot). As to conditions: 4-5 days after application, read-out: disease control (inhibition of growth, photometrically). In kind it is cell-based. The method, boiled down: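 Cryopreserved conidia in potato dextrose broth added to compound in DMSO in microtiter plates. Incubation at 24 °C; growth inhibition read photometrically 4-5 days after application.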

In data set [7] the test system is Thanatephorus cucumeris (Rhizoctonia solani). Kind of data set: Fungicidal activity against Thanatephorus cucumeris (Rhizoctonia solani) / liquid culture (foot rot, damping-off). In kind it is cell-based. As to conditions: 3-4 days after application, read-out: disease control (inhibition of growth, photometrically). The method in brief: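 Fungal mycelia fragments from fresh liquid culture were mixed into potato dextrose broth and added to test compounds supplied in DMSO. Incubation was at 24° C. Growth inhibition was read photometrically 3-4 days after application.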

Data set [8] deals with Monographella nivalis (Microdochium nivale). Kind of data set: Fungicidal activity against Monographella nivalis (Microdochium nivale) / liquid culture (foot rot cereals). In kind it is cell-based. As to conditions: 4-5 days after application, read-out: disease control (inhibition of growth, photometrically). The method in brief: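 Conidia in potato dextrose broth added to microtiter wells holding test compound in DMSO. Incubated at 24° C.; growth inhibition read photometrically 4-5 days after application.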

For data set [9], the system named is Mycosphaerella graminicola (Septoria tritici). Kind of data set: Fungicidal activity against Mycosphaerella graminicola (Septoria tritici) / liquid culture (Septoria blotch). As to conditions: Zymoseptoria tritici, 4-5 days after application, read-out: disease control (inhibition of growth, photometrically). In kind it is cell-based. The method, boiled down: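 Cryo-stored conidia were suspended in potato dextrose broth and added to test compound dispensed from DMSO solution. Plates were held at 24° C., and growth inhibition was measured photometrically 4-5 days after application.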

Consider `Clc1ccccc1Cc1cccc(-c2ncc3c(n2)CCOC3)n1` [Compound 3], for which the melting point (as a rule, the temperature, or range, at which the solid turns liquid) was in the range of 112 to 113 °C. In addition, in data set [1], the pest or weed control at 200 ppm is no less than 80%. Besides, in the data set on Alternaria solani, the pest or weed control at 200 ppm is no less than 80%. Moreover, the pest or weed control at 200 ppm in data set [2] is no less than 80%. In addition, the inhibition (commonly how much of the control response was suppressed) at 200 ppm in the data set on Gaeumannomyces graminis is no less than 80%. Further, the inhibition at 200 ppm in [3] is no less than 80%. Further, the pest or weed control at 200 ppm with Pyrenophora teres was no less than 80%. For the same compound, the inhibition at 200 ppm in [4] was no less than 80%. The pest or weed control at 200 ppm in data set [5] was no less than 80%. The inhibition at 200 ppm in data set [6] is no less than 80%. In addition, the inhibition at 200 ppm in [7] was no less than 80%. Moreover, the inhibition at 200 ppm in data set [8] is no less than 80%. Further, the inhibition at 200 ppm in data set [9] is no less than 80%.
`Clc1ccc(Cc2cccc(-c3ncc4c(n3)CCOC4)n2)cc1` [Compound 5] showed a melting point of 104 to 106 °C. Further, the pest or weed control at 200 ppm in data set [1] is no less than 80%. Also, the pest or weed control at 200 ppm with Alternaria solani was no less than 80%. The pest or weed control at 200 ppm in data set [2] is no less than 80%. For the same compound, the inhibition at 200 ppm in the data set with Gaeumannomyces graminis was no less than 80%. Further, the inhibition at 200 ppm in [3] is no less than 80%. In the data set on Pyrenophora teres, the pest or weed control at 200 ppm was no less than 80%. Besides, the inhibition at 200 ppm in data set [4] is no less than 80%. Moreover, the pest or weed control at 200 ppm in data set [5] is no less than 80%. The inhibition at 200 ppm in data set [6] was no less than 80%. Besides, the inhibition at 200 ppm in [7] is no less than 80%. Moreover, in [8], the inhibition at 200 ppm was no less than 80%. Also, the inhibition at 200 ppm in data set [9] was no less than 80%.
Compound `c1ccc(Cc2cccc(-c3ncc4c(n3)CCC3(C4)OCCO3)n2)cc1` [Compound 19] yielded a melting point of 236 to 237 °C. Moreover, the pest or weed control at 200 ppm in data set [1] is no less than 80%. Also, the pest or weed control at 200 ppm in the data set on Alternaria solani was no less than 80%. For the same compound, in data set [2], the pest or weed control at 200 ppm was no less than 80%. In addition, in the data set with Gaeumannomyces graminis, the inhibition at 200 ppm was no less than 80%. Moreover, in data set [3], the inhibition at 200 ppm is no less than 80%. In addition, in the data set on Pyrenophora teres, the pest or weed control at 200 ppm was no less than 80%. The inhibition at 200 ppm in data set [4] was no less than 80%. The pest or weed control at 200 ppm in data set [5] was no less than 80%. In addition, the inhibition at 200 ppm in data set [6] was no less than 80%. Also, the inhibition at 200 ppm in [7] is no less than 80%. Besides, the inhibition at 200 ppm in data set [8] was no less than 80%. Also, the inhibition at 200 ppm in data set [9] is no less than 80%.
Consider `COc1ccc(Cc2cccc(-c3ncc4c(n3)CCOC4)n2)cc1` [Compound 21], for which the melting point lay in the range of 216 to 219 °C. Further, the pest or weed control at 200 ppm in [1] is no less than 80%. For the same compound, the pest or weed control at 200 ppm in the data set with Alternaria solani is no less than 80%. The pest or weed control at 200 ppm in data set [2] was no less than 80%. In addition, the inhibition at 200 ppm in the data set on Gaeumannomyces graminis is no less than 80%. Moreover, the inhibition at 200 ppm in data set [3] was no less than 80%. Besides, in the data set with Pyrenophora teres, the pest or weed control at 200 ppm was no less than 80%. In addition, the inhibition at 200 ppm in data set [4] was no less than 80%. In addition, the pest or weed control at 200 ppm in data set [5] was no less than 80%. Moreover, the inhibition at 200 ppm in data set [6] is no less than 80%. Moreover, the inhibition at 200 ppm in data set [7] is no less than 80%. The inhibition at 200 ppm in [8] is no less than 80%. The inhibition at 200 ppm in [9] was no less than 80%.
